Measured values as given in patent US6610672B2, “Compositions including reduced malto-oligosaccharide preserving agents, and methods for preserving a material” (Grain Processing Corporation, priority 1999, dated 2003).

How the values were obtained:
[1] = Ultraviolet absorption (450 nm) over time of buffered lysine solutions with or without malto-oligosaccharide, warmed to 75° C.; format: physicochemical
Description: A pH 6 buffered lysine solution was prepared by dissolving L-lysine (0.5 g) in phosphate buffer and adjusting the pH with hydrochloric acid. […] An aqueous solution of a reduced malto-oligosaccharide was prepared by dissolving a reduced malto-oligosaccharide mixture in water to produce a solution having a final solids content of 50% by weight. The buffered lysine solution (2 mL) was dissolved in the aqueous reduced malto-oligosaccharide solution (hydrogenated MALTRIN® M180) (3 mL) to produce a solution.

[2] = test system: Fleischmann's baker's yeast; test: Yeast viability before and after freeze drying (cell counting after plating on YM agar); format: cell-based; settings: yeast viability of freeze dried sample divided by that of control sample
Description: Yeast viability was determined by cell counting after plating on yeast extract, malt extract (YM) agar in accordance with the method described in FDA Bacteriological Analytical Manual, 6th Ed., Ch. 4, pp. 401-402 (1984). Yeast viability is expressed as the number of cells per gram of dry solids (gm.ds). The percent yeast survival was determined by dividing the yeast viability of the freeze dried sample by the yeast viability of the control sample.
For comparison, a mixture of yeast cells and a malto-oligosaccharide was freeze dried, as follows. A 20% aqueous solution of MALTRIN® M180 (M180) was prepared by dissolving 85.5 g (6.4% moisture) of M180 in […] of deionized water. A suspension of yeast cells was prepared by dissolving 5.78 g of Fleischmann's baker's yeast in 94.3 g of sterile phosphate buffer. The yeast suspension was stirred for 30 minutes to obtain a relatively homogenous yeast mixture. A 10.0 ml aliquot of the yeast suspension was pipetted into the 20% aqueous M180 solution. A control sample was removed to determine yeast viability by plating on YM agar (sample 9A). […] After freeze drying, sample 9B was removed from the pans and analyzed for yeast viability. […]
A mixture of yeast cells and a reduced malto-oligosaccharide was freeze dried, as follows. […] After freeze drying, samples 9D-1 and 9D-2 were removed from the pans and analyzed for yeast viability. […]

[3] = test system: Enzeco® Fungal Lactase Concentrate; test: Lactase enzyme activity before and after freeze drying (glucose released from a buffered lactose solution); format: biochemical
Description: The enzyme activity was determined in accordance with Mazzobre et al., Biopolymer Science: Food and Non Food Applications, Montpellier (France) Sep. 28-30, 1998 Ed. INRA, Paris, 1999 (Les Colloques, no 91). The procedure is based on measuring the amount of glucose released from a buffered lactose solution. The measurement was done using a YSI 2700 glucose analyzer.
For comparison, a mixture containing lactase and a malto-oligosaccharide was prepared, as follows. A 20% aqueous solution of MALTRIN® M180 (M180) was prepared by dissolving 85.5 g (6.4% moisture) of M180 in 313.5 g of deionized water. Enzeco® Fungal Lactase Concentrate, 1.0 g was added to the slurry and stirred for one hour. A 20.0 ml aliquot of the mixture was removed as a control (sample 8A). The remaining sample was poured into two separate freeze drying pans and each was freeze dried according to the temperature profile in Table 3. The temperature profile shown in column 8B of Table 3 represents the temperature profile for only one of the two samples in the freeze drying pans. The freeze dryer was a Virtis Genesis 25XL unit. Final vacuum of the system was 11.8 mtorr. After freeze drying, the material was removed from the pans and evaluated for enzyme activity. The enzyme activity in column 8B of Table 4 represents an average of the enzyme activities for each of the two samples in the freeze drying pans.
A mixture containing lactase and a reduced malto-oligosaccharide was freeze dried as follows. A 20% aqueous solution of reduced malto-oligosaccharide with a carbohydrate profile that matches MALTRIN® M180 (H-M180) was prepared by dissolving 83.4 g (4.1% moisture) of the reduced malto-oligosaccharide in 315.6 g of deionized water. Enzeco® Fungal Lactase Concentrate (1.0 g) was added to the slurry and stirred for one hour. A 20.0 ml aliquot of the mixture was removed as a control (sample 8C). The remaining sample was poured into two separate freeze drying pans and freeze dried according to the temperature profile in Table 3 (samples 8D-1 and 8D-2). The freeze dryer was a Virtis Genesis 25XL unit. Final vacuum of the system was 11.8 mtorr. After freeze drying, the material was removed from the pans and evaluated for enzyme activity as described in the previous example.
For comparison, a mixture containing lactase and trehalose was freeze dried, as follows. A 20% aqueous solution of trehalose was prepared by dissolving 88.9 g (9.1% moisture) of trehalose in 311.0 g of deionized water. Enzeco® Fungal Lactase Concentrate, 1.0 g was added to the slurry and stirred for-one hour. A 20.0 ml aliquot of the mixture was removed as a control (sample 8E). The remaining sample was poured into two separate freeze drying pans and each was freeze dried according to the temperature profile in Table 3. The temperature profile shown in column 8F of Table 3 represents the temperature profile of only one of the two samples in the freeze drying pans. The freeze dryer was a Virtis Genesis 25XL unit. Final vacuum of the system was 11.8 mtorr. After freeze drying, the material was removed from the pans and evaluated for enzyme activity as described in the previous example. The enzyme activity in column 8F of Table 4 represents an average of the enzyme activities for each of the two samples in the freeze drying pans.
The enzymatic activities shown in Table 4 are expressed as the percentage of glucose liberated in the enzyme assay as measured by the amount of glucose liberated divided by the maximum amount of glucose that can be theoretically liberated.

NCCCC[C@H](N)C(=O)O [Control (lysine only), L-lysine]
UV absorption (450 nm) ([1]; time 0 min): 0.044
UV absorption (450 nm) ([1]; time 20 min): 0.043
UV absorption (450 nm) ([1]; time 35 min): 0.044
UV absorption (450 nm) ([1]; time 50 min): 0.046
UV absorption (450 nm) ([1]; time 65 min): 0.047
UV absorption (450 nm) ([1]; time 80 min): 0.048
UV absorption (450 nm) ([1]; time 100 min): 0.050
UV absorption (450 nm) ([1]; time 110 min): 0.050
UV absorption (450 nm) ([1]; time 125 min): 0.051
UV absorption (450 nm) ([1]; time 170 min): 0.055
UV absorption (450 nm) ([1]; time 185 min): 0.057
UV absorption (450 nm) ([1]; time 200 min): 0.057
UV absorption (450 nm) ([1]; time 215 min): 0.059
UV absorption (450 nm) ([1]; time 230 min): 0.059
UV absorption (450 nm) ([1]; time 245 min): 0.058
UV absorption (450 nm) ([1]; time 260 min): 0.061
UV absorption (450 nm) ([1]; time 305 min): 0.061
UV absorption (450 nm) ([1]; time 320 min): 0.063
UV absorption (450 nm) ([1]; time 335 min): 0.063
UV absorption (450 nm) ([1]; time 350 min): 0.063
UV absorption (450 nm) ([1]; time 365 min): 0.064
UV absorption (450 nm) ([1]; time 380 min): 0.065

OC[C@H]1O[C@H](O[C@H]2O[C@H](CO)[C@@H](O)[C@H](O)[C@H]2O)[C@H](O)[C@@H](O)[C@@H]1O [Trehalose, trehalose]
% Yeast Survival [2]: 58.0 (trehalase) %
% activity (freeze dried sample divided by control sample not freeze dried) ([3]; Avg. over assay times): 86.6%
% activity (freeze dried sample divided by control sample not freeze dried) ([3]; lactase assay time 0 h): 0%
% activity (freeze dried sample divided by control sample not freeze dried) ([3]; lactase assay time 0.05 h): 72.4%
% activity (freeze dried sample divided by control sample not freeze dried) ([3]; lactase assay time 0.5 h): 90.0%
% activity (freeze dried sample divided by control sample not freeze dried) ([3]; lactase assay time 1 h): 90.7%
% activity (freeze dried sample divided by control sample not freeze dried) ([3]; lactase assay time 2 h): 93.2%
